Assays:
[1] = tested on: known prostate carcinoma recurrence; assay: PET time activity curves in prostate carcinoma recurrence; type: in vivo, human
Procedure: (§1) Regions in marrow (ilium), muscle (gluteus), and bladder reached a plateau at 4.5 minutes that remained constant throughout the imaging period.
(§2) The time required for [^18F]-FACBC to accumulate in tumour cells in steps a) and c) of the aspects described above may be about 5 minutes or less after [^18F]-FACBC is administered. Optionally, the time taken for [^18F]-FACBC to accumulate is 3 to 5 minutes, for example 4 minutes. This therefore allows image acquisition to start 3 to 5 minutes after administration, for example 4 minutes after [^18F]-FACBC administration. […] Regions in marrow (ilium), muscle (gluteus), and bladder reached a plateau at 4.5 minutes that remained constant throughout the imaging period.

[2] = PET time activity curves in reference regions; type: in vivo, human; settings: regions in marrow (ilium), muscle (gluteus), and bladder; remained constant throughout the imaging period
Procedure: as §1, §2

[3] = human, in vivo
Procedure: FIGS. 1a and 1b show accumulation of FACBC in the Virchow's node when the FACBC is injected into the left arm.
In some embodiments, the right arm may be preferred as stasis in the axillary vein upon injection in the left arm may be misinterpreted as a metastatic lymph node called Virchow's node, which is located in the left supraclavicular fossa (the area above the left clavicle, or collar bone). For example, FIGS. 1a and 1b show accumulation of FACBC in the Virchow's node when the FACBC is injected into the left arm.

Structure (SMILES): N[C@]1(C(=O)O)C[C@@H](F)C1 [fluciclovine, anti-1-amino-3-^18F-fluorocyclobutane-1-carboxylic acid]
- plateau of uptake lasts to ([1]; known prostate carcinoma recurrence, after the maximum): 30 min
- gradual clearance ([1]; known prostate carcinoma recurrence, after the plateau, out to 60 minutes): 9 %/min
- time of maximum uptake ([1]; rapid uptake in known prostate carcinoma recurrence): 4.5 min
- time at which plateau is reached [2]: 4.5 min
- standardized uptake value (SUV) [3]: > 200
